Reference: PMC13672995, “NCR13 peptide protects soybean against Cercospora sojina using multi-faceted modes of action and additive interaction with chemical fungicides” (Journal of Experimental Botany, 2025)
Converted amounts (≈) assume the structure as drawn. Like-named read-outs stand apart in the source and are kept apart here. Where a SMILES comes first, the peptide text is derived from it.

Assays:
[1] = Peroxidase assay (TMB substrate); assay type: biochemical; details: heme 5 µM, peptide 5 µM, absorption at 370 nm and 652 nm
Method: A Pierce TMB substrate kit (Thermo Scientific) was used to measure the peroxidase activity of heme. In a transparent 96-well plate, 50 µl of TMB substrate and 50 µl of […] were added followed by addition of heme (5 µM) or peptides plus heme (5 µM each). The reaction progression was measured in the Tecan plate reader, by recording UV-vis absorption values at 370 nm and 652 nm for every minute up to 1 h.

[2] = Heme-peptide binding assay (colour change); details: equimolar heme and peptide, 100 µM, 1 h, room temperature
Method: Heme solutions were freshly prepared by dissolving hemin chloride (Sigma Cat No: 3741) in 0.1 M NaOH and used within an hour after preparation. Two heme-sequestering peptides, NCR247 and NCR455 ([Montiel et al., 2017]; [Sankari et al., 2022]), were used as positive controls, and water-only treatment as a negative control. The equimolar concentration of heme and peptide (100 µM) or water were mixed and incubated at room temperature for 1 h. When dissolved in NaOH, heme is light to dark brown in color; however, when it binds to a peptide, the color changes to reddish-brown as described by [Sankari et al. (2022)]. The change in color of heme to reddish-brown indicated the heme binding ability of the peptide.

[3] = tested on: C. sojina QoI fungicide-sensitive isolate Cs320; assay: microbe, parasite or virus in culture; assay type: cell-based, Cercospora sojina; details: for MIC (μM) against C. sojina isolates, Fungicide sensitive, Cs320 / MIC: 48 h; for MIC: Cercospora sojina, read-out: MIC (µM) against Fungicide sensitive C. sojina isolate (Cs320); for MIC (µM) against Fungicide sensitive C. sojina isolate (Cs320): QoI fungicides, determined in 2 days, 0.02 µM lowest concentration tested
Method: (§1) In vitro antifungal activity of AFPs and QoI fungicides was determined using 96-well plate assays as described ([Velivelli et al., 2020]) with slight modifications. Briefly, 2- to 3-week-old C. sojina was used to make a conidial suspension in 2× SFM at the final concentration of ∼10^5 conidia ml^−1. Simultaneously, peptide dilutions (in water) at various concentrations were made. Fungicides were dissolved in 50% acetone and 50% water to make a stock solution of 500 µM, and serial dilutions were made in water as needed. The peptide–conidia or the fungicide–conidia mixture at the ratio of 1:1 (45 µl:45 µl) was added in a 96-well plate and incubated at room temperature for 48 h, after which MICs of the peptides/fungicides were calculated based on microscopy as well as the resazurin cell viability assay ([Velivelli et al., 2020]).

[4] = tested on: C. sojina QoI fungicide-resistant isolate Cs350; assay type: cell-based, Cercospora sojina; details: for MIC (μM) against C. sojina, Fungicide resistant, Cs350: 48 h; for fold increase of MIC with increasing iron concentration: FeSO4 in SFM
Method: as §1

[5] = tested on: C. sojina Cs350 (fungicide resistant); assay: Peptide-fungicide checkerboard assay; assay type: cell-based, Cercospora sojina; details: for MIC: Cercospora sojina, SHAM 60 µg ml–1, microscopy, read-out: Individual MIC; for MIC / interaction with NCR13_PFV1 by FIC index: 96 h; for MIC / FIC score: Cs350, 4 d; for interaction with NCR13_PFV1 by FIC index: Cs350, in vitro
Method: Synergy between NCR13_PFV1 and the widely used QoI foliar fungicides, azoxystrobin (Sigma-Aldrich, Cat No: 31697), trifloxystrobin (Sigma-Aldrich, Cat No: 46447), and pyraclostrobin (Sigma-Aldrich, Cat No: 33696), were evaluated using checkerboard assays. This assay was performed in a 96-well plate and the preparation of conidial suspension, peptide dilutions, and fungicide dilutions were similar to the in vitro antifungal activity assay described above. The presence of an alternative respiration pathway allows some fungi including C. sojina to germinate even in the presence of a high dose of QoI fungicides in vitro ([Ziogas et al., 1997]; [Zhang et al., 2012]). Therefore, to prevent alternative respiration in C. sojina, salicylhydroxamic acid (SHAM) was added in each reaction at the final concentration of 60 µg ml^–1 ([Zhang et al., 2012]). The conidia, peptide, fungicide, and SHAM were added in a 96-well plate at the v/v ratio of 4:1:1:2 (50 µl:12.5 µl:12.5 µl:25 µl) in the final reaction volume of 100 µl, and the plate was incubated at room temperature for 96 h (4 d). After 96 h, MIC values of the peptide–fungicide combination, peptide alone, and fungicide alone were calculated based on microscopy as well as the resazurin cell viability assay. The fractional inhibitory concentration (FIC) index was calculated using the formula FIC = (MICA+B/MICA) + (MICB+A/MICB), where MICA and MICB are the MIC for peptide (A) alone and fungicide (B) alone, respectively, MICA+B is the MIC for peptide in combination with fungicide (A+B), and MICB+A is the MIC for fungicide in combination with peptide (B+A). The FIC index was interpreted as: synergistic, ≤0.5; additive, >0.5–1.0; indifferent, >1 to <4.0; or antagonistic, ≥4.0.

[6] = pair pyraclostrobin / NCR13_PFV1

For “RNGCIVDARCPYQKCSYPLYCRRR [NCR455, reference compound]”, the “peroxidase activity of heme and FeSO4 in the presence of peptide” value [1] was “reduced or stopped” and the “heme binding (colour change of heme from brown to reddish-brown)” value [2] was “visible color change of heme from brown to reddish-brown”.

In the case of CC(C)[C@H](NC(=O)[C@H](CCCCN)NC(=O)[C@@H]1CCCN1C(=O)[C@H](CCCCN)NC(=O)[C@H](CCCNC(=N)N)NC(=O)[C@H](CS)NC(=O)[C@H](C)NC(=O)[C@H](Cc1ccccc1)NC(=O)[C@H](CCCCN)NC(=O)[C@@H](N)CCCCN)C(=O)N1CCC[C@H]1C(=O)N[C@@H](CCCCN)C(=O)N[C@@H](CS)C(=O)O [NCR13_V7] (H-KKFACRKPKVPKC-OH; N-terminus and C-terminus assumed), the “MIC (μM) against C. sojina isolates, Fungicide sensitive, Cs320” value [3] is reported as 6 µM (≈ 9.2 µg/mL), the “MIC (μM) against C. sojina, Fungicide resistant, Cs350” value (“MIC (μM) against C. sojina … Cs350” below) [4] is reported as 12 µM (≈ 18.4 µg/mL) and the “fold increase of MIC with increasing iron concentration” value [4] is reported as 2 fold.

With CC[C@H](C)[C@H](NC(=O)[C@H](CCCNC(=N)N)NC(=O)[C@@H](NC(=O)[C@H](Cc1ccccc1)NC(=O)[C@H](Cc1c[nH]c2ccccc12)NC(=O)[C@H](Cc1ccccc1)NC(=O)[C@H](CCCNC(=N)N)NC(=O)[C@H](CCCNC(=N)N)NC(=O)[C@H](CC(C)C)NC(=O)[C@H](Cc1ccccc1)NC(=O)CNC(=O)[C@H](CCCCN)NC(=O)[C@H](CS)NC(=O)[C@H](CCCNC(=N)N)NC(=O)CNC(=O)CN)[C@@H](C)O)C(=O)N[C@@H](CS)C(=O)O [GMA4CG_V7] (H-GGRCKGFLRRFWFTRIC-OH) the “MIC (μM) against C. sojina … Cs350” value [4] was 6 µM (≈ 12.6 µg/mL).

With C[C@H](NC(=O)CN)C(=O)N[C@@H](CS)C(=O)N[C@@H](Cc1c[nH]cn1)C(=O)N[C@@H](CCCNC(=N)N)C(=O)N[C@@H](CCC(N)=O)C(=O)NCC(=O)N[C@@H](Cc1ccccc1)C(=O)NCC(=O)N[C@@H](Cc1ccccc1)C(=O)N[C@@H](C)C(=O)N[C@@H](Cc1ccccc1)C(=O)N[C@@H](Cc1ccccc1)C(=O)N[C@@H](Cc1ccccc1)C(=O)N[C@@H](Cc1ccc(O)cc1)C(=O)N[C@@H](CCCCN)C(=O)N[C@@H](CCCCN)C(=O)N[C@@H](CS)C(=O)O [GMA5AC_V2] (H-GACHRQGFGFAFFFYKKC-OH; N-terminus and C-terminus assumed) the “MIC (μM) against C. sojina … Cs350” value [4] was 6 µM (≈ 12.7 µg/mL).

In the case of C[C@H](NC(=O)CN)C(=O)N[C@@H](CS)C(=O)N[C@@H](Cc1c[nH]cn1)C(=O)N[C@@H](CCCNC(=N)N)C(=O)N[C@@H](CCC(N)=O)C(=O)NCC(=O)N[C@@H](Cc1ccccc1)C(=O)NCC(=O)N[C@@H](Cc1ccccc1)C(=O)N[C@@H](C)C(=O)N[C@@H](Cc1c[nH]c2ccccc12)C(=O)N[C@@H](Cc1ccccc1)C(=O)N[C@@H](Cc1c[nH]c2ccccc12)C(=O)N[C@@H](Cc1ccc(O)cc1)C(=O)N[C@@H](CCCCN)C(=O)N[C@@H](CCCCN)C(=O)N[C@@H](CS)C(=O)O [GMA5AC_V1] (H-GACHRQGFGFAWFWYKKC-OH; N-terminus and C-terminus assumed), the “MIC (μM) against C. sojina … Cs350” value [4] is reported as 6 µM (≈ 13.2 µg/mL).

With CC[C@H](C)[C@H](NC(=O)[C@H](CCCNC(=N)N)NC(=O)[C@H](CS)NC(=O)[C@H](CCCNC(=N)N)NC(=O)CNC(=O)[C@@H](N)CO)C(=O)N[C@@H](CC(C)C)C(=O)N[C@@H](Cc1ccccc1)C(=O)N[C@@H](CCCNC(=N)N)C(=O)N[C@@H](Cc1c[nH]c2ccccc12)C(=O)N[C@@H](Cc1ccc(O)cc1)C(=O)N[C@@H](Cc1ccccc1)C(=O)N[C@H](C(=O)N[C@@H](CCCCN)C(=O)N[C@@H](CC(N)=O)C(=O)N[C@@H](CS)C(=O)O)[C@@H](C)O [GMA1C_V3] (H-SGRCRILFRWYFTKNC-OH) the “MIC (μM) against C. sojina … Cs350” value [4] was 6 µM (≈ 12.3 µg/mL).

For CC(C)C[C@H](NC(=O)[C@H](CS)NC(=O)[C@H](C)NC(=O)CN)C(=O)N[C@@H](CCCCN)C(=O)N[C@@H](CC(N)=O)C(=O)N[C@@H](CCCNC(=N)N)C(=O)N[C@@H](Cc1c[nH]cn1)C(=O)N[C@@H](CO)C(=O)N[C@@H](CCCCN)C(=O)N[C@@H](Cc1c[nH]cn1)C(=O)N[C@@H](Cc1ccc(O)cc1)C(=O)NCC(=O)N[C@@H](Cc1c[nH]c2ccccc12)C(=O)N[C@@H](Cc1ccccc1)C(=O)N[C@@H](Cc1c[nH]c2ccccc12)C(=O)N[C@@H](Cc1ccc(O)cc1)C(=O)N[C@@H](Cc1ccc(O)cc1)C(=O)N[C@@H](CCCNC(=N)N)C(=O)N[C@@H](Cc1c[nH]cn1)C(=O)N[C@@H](CS)C(=O)N[C@@H](Cc1ccc(O)cc1)C(=O)O [GMAOe1C_V1] (H-GACLKNRHSKHYGWFWYYRHCY-OH; N-terminus and C-terminus assumed), the “MIC (μM) against C. sojina … Cs350” value [4] was 3 to 6 µM.

In the case of N=C(N)NCCC[C@H](NC(=O)[C@H](CS)NC(=O)[C@H](Cc1c[nH]c2ccccc12)NC(=O)[C@H](Cc1ccccc1)NC(=O)[C@H](CCCCN)NC(=O)[C@@H](N)CCCCN)C(=O)N[C@@H](CCCCN)C(=O)N1CCC[C@H]1C(=O)N[C@@H](CCCCN)C(=O)N[C@@H](Cc1c[nH]c2ccccc12)C(=O)N1CCC[C@H]1C(=O)N[C@@H](CCCCN)C(=O)N[C@@H](CS)C(=O)O [NCR13_V9] (H-KKFWCRKPKWPKC-OH; N-terminus and C-terminus assumed), the “MIC (μM) against C. sojina isolates, Fungicide sensitive, Cs320” value [3] is reported as 3 µM (≈ 5.21 µg/mL), the “MIC (μM) against C. sojina … Cs350” value [4] is reported as 6 µM (≈ 10.4 µg/mL) and the “fold increase of MIC with increasing iron concentration” value [4] is reported as 2 fold.

For CC[C@H](C)[C@H](NC(=O)[C@H](CCCNC(=N)N)NC(=O)[C@@H](NC(=O)[C@H](Cc1c[nH]c2ccccc12)NC(=O)[C@H](Cc1ccc(O)cc1)NC(=O)[C@H](Cc1c[nH]c2ccccc12)NC(=O)[C@H](CCCNC(=N)N)NC(=O)[C@H](CCCNC(=N)N)NC(=O)[C@H](CC(C)C)NC(=O)[C@H](Cc1ccccc1)NC(=O)CNC(=O)[C@H](CCCCN)NC(=O)[C@H](CS)NC(=O)[C@H](CCCNC(=N)N)NC(=O)CNC(=O)CN)[C@@H](C)O)C(=O)N[C@@H](CS)C(=O)O [GMA4CG_V8] (H-GGRCKGFLRRWYWTRIC-OH), the “MIC (μM) against C. sojina … Cs350” value [4] was 6 µM (≈ 13 µg/mL).

With COC(=O)N(OC)c1ccccc1COc1ccn(-c2ccc(Cl)cc2)n1 [Pyraclostrobin, pyraclostrobin] the MIC [5, 6] was 24 µM, the “interaction with NCR13_PFV1 by FIC index” value [5] was “additive (additive, >0.5–1.0)” and the FIC score [5, 6] was no more than 1. For the same molecule, the MIC [3] was less than 0.02 µM and the “MIC (µM) against Fungicide sensitive C. sojina isolate (Cs320)” value [3] was less than 0.02 µM.

In the case of CC[C@H](C)[C@H](NC(=O)[C@H](CCCNC(=N)N)NC(=O)[C@H](CS)NC(=O)[C@H](CCCNC(=N)N)NC(=O)CNC(=O)[C@@H](N)CO)C(=O)N[C@@H](CC(C)C)C(=O)N[C@@H](Cc1ccccc1)C(=O)N[C@@H](CCCNC(=N)N)C(=O)N[C@@H](Cc1c[nH]c2ccccc12)C(=O)N[C@@H](Cc1ccccc1)C(=O)N[C@@H](Cc1c[nH]c2ccccc12)C(=O)N[C@H](C(=O)N[C@@H](CCCCN)C(=O)N[C@@H](CC(N)=O)C(=O)N[C@@H](CS)C(=O)O)[C@@H](C)O [GMA1C_V2] (H-SGRCRILFRWFWTKNC-OH), the “MIC (μM) against C. sojina … Cs350” value [4] is reported as 6 µM (≈ 12.4 µg/mL).

In the case of CON=C(C(=O)OC)c1ccccc1CON=C(C)c1cccc(C(F)(F)F)c1 [Trifloxystrobin, trifloxystrobin], the MIC ([5]; pair trifloxystrobin / NCR13_PFV1, highest fungicide concentration 48 µM) is reported as greater than 48 µM, the “interaction with NCR13_PFV1 by FIC index” value [5] is reported as “additive (additive, >0.5–1.0)” and the FIC score ([5]; pair trifloxystrobin / NCR13_PFV1) is reported as no more than 1. For the same molecule, the MIC [3] was less than 0.02 µM and the “MIC (µM) against Fungicide sensitive C. sojina isolate (Cs320)” value [3] was less than 0.02 µM.
